# “And” between values parts separate entries of the source, which are not always exact repeats. Identical values can stand only once. Like-named read-outs stand apart in the source and are kept apart here.
# Experiments:
# human thrombin = molecular target: T1, human thrombin (Homo sapiens, UniProt P00734); assay: Inhibitory activity for thrombin (chromogenic substrate hydrolysis, 405 nm); assay type: biochemical
# T1 construct: purchased Sigma T-6759
# In short: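 Thrombin: human enzyme (5 units/ml stock, 0.1% BSA) acted for 20 min on N-benzoyl-Phe-Val-Arg-p-nitroanilide in 125 mM NaCl, 50 mM Tris-HCl pH 8.0, with compounds dissolved in 50% methanol. Hydrolysis was read at 405 nm. Selectivity index was trypsin IC50 divided by thrombin IC50.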
# [1] = Pharmacokinetic test in rats (intravenous injection and oral administration); assay type: in vivo, S.D. male rats; settings: for bioavailability: oral vs intravenous
# Method: S.D. male rats weighing 200±20 g which had fasted overnight were subjected to cannulation at their femoral veins and arteries. Compound 88 prepared in Example 62 was dissolved in physiological saline and then administered to the rats both by intravenous injection and oral administration. Blood was taken at prescribed intervals of time and then immediately mixed with methanol. The mixture was centrifuged (15,000 rpm, 5 min., 4° C.) to obtain quantitative amount of the supernatant which was then subjected to HPLC in Diode Array Detector at 254 nm to analyse the concentration of the test compound in the blood.
# [2] = test system: thrombin time (TT) in rat plasma; assay: Thrombin time (TT) in rat plasma after oral administration; assay type: in vivo, SD male rats; settings: TT after / TT before administration
# Method: SD male rats weighing 220±20 g which had fasted overnight were used as experimental animals. Blood taken from the hearts of the experimental animals just before administration of the test compound and at 30, 60, 120 and 240 minutes after oral administration of the test compound was mixed with 0.108M sodium citrate in the ratio of 9:1. The mixtures thereby obtained were centrifuged at 15,000 rpm for 5 minutes at 4° C. to separate the plasma, which was stored at -20° C. until the TT was measured by means of the method described below.
# 200 μl of Owren's buffer was added to 50 μl of the plasma and 100 μl of the diluted plasma thereby obtained was injected into the vial of a coagulometer and then incubated for 2 minutes at 37° C. To each vial was added 100 μl of thrombin at a concentration of 20 U/ml, which had prewarmed at 37° C., to measure the time (TT) until clotting occurred. The ratio of the TT in rat plasma after administration of the test compound to the TT in rat plasma before administration of the test compound was calculated.
compound,measurement,setting,value
"CCn1c(CC[C@@H]2CCCN2C(=O)[C@H]2CCCN2CC(=O)O)cc2ccc(C(=N)N)cc21 [Compound 88, 2-[(R)-2-[[(S)-2-[2-(6-amidino-1-ethylindol-2-yl)ethyl]pyrrolidinyl]carbonyl]pyrrolidinyl]acetic acid]",Selectivity (trypsin/thrombin),human thrombin; IC50 for trypsin divided by IC50 for thrombin,8.1
same,IC50,"human thrombin; human thrombin, 20 min, pH 8.0, N-benzoyl-Phe-Val-Arg-p-nitroanilide",15.9 nM
same,"Blood concentration, individual rats (Rat-1 to Rat-5)","[1]; i.v. 10 mg/kg, 0.000 h",0 ng/mL
same,"Blood concentration, individual rats (Rat-1 to Rat-5)","[1]; i.v. 10 mg/kg, 0.033 h, 10 mg/kg, 1.98 min",11186 ng/mL and 25999 ng/mL and 23841 ng/mL and 28971 ng/mL and 18505 ng/mL
same,"Blood concentration, individual rats (Rat-1 to Rat-5)","[1]; i.v. 10 mg/kg, 0.083 h, 10 mg/kg, 4.98 min",11984 ng/mL and 10776 ng/mL and 14222 ng/mL and 11623 ng/mL
same,"Blood concentration, individual rats (Rat-1 to Rat-5)","[1]; i.v. 10 mg/kg, 0.250 h, 10 mg/kg, 15 min",2707 ng/mL and 4629 ng/mL and 3531 ng/mL and 5982 ng/mL and 3895 ng/mL
same,"Blood concentration, individual rats (Rat-1 to Rat-5)","[1]; i.v. 10 mg/kg, 0.500 h, 10 mg/kg, 30 min",816 ng/mL and 1963 ng/mL and 1685 ng/mL and 2939 ng/mL and 1516 ng/mL
same,"Blood concentration, individual rats (Rat-1 to Rat-5)","[1]; i.v. 10 mg/kg, 1.000 h, 10 mg/kg, 60 min",784 ng/mL and 773 ng/mL and 577 ng/mL and 1204 ng/mL and 535 ng/mL
same,"Blood concentration, individual rats (Rat-1 to Rat-5)","[1]; i.v. 10 mg/kg, 2.000 h, 10 mg/kg",0 ng/mL
same,"Blood concentration, individual rats (Rat-1 to Rat-5)","[1]; i.v. 10 mg/kg, 2.000 h, 10 mg/kg, 120 min",204 ng/mL and 98 ng/mL and 424 ng/mL and 162 ng/mL
same,"Blood concentration, individual rats (Rat-1 to Rat-5)","[1]; i.v. 10 mg/kg, 4.000 h, 10 mg/kg",0 ng/mL
same,"Blood concentration, individual rats (Rat-1 to Rat-5)","[1]; i.v. 10 mg/kg, 4.000 h, 10 mg/kg, 240 min",121 ng/mL and 55 ng/mL
same,"Blood concentration, individual rats (Rat-1 to Rat-5)","[1]; i.v. 10 mg/kg, 6.000 h, 10 mg/kg",0 ng/mL
same,"Blood concentration, individual rats (Rat-1 to Rat-5)","[1]; i.v. 10 mg/kg, 6.000 h, 10 mg/kg, 360 min",51 ng/mL
same,"Blood concentration, individual rats (Rat-1 to Rat-5)","[1]; i.v. 10 mg/kg, 24.000 h",0 ng/mL
same,"Blood concentration, individual rats (Rat-1 to Rat-5)","[1]; oral 100 mg/kg, 0.000 h",0 ng/mL
same,"Blood concentration, individual rats (Rat-1 to Rat-5)","[1]; oral 100 mg/kg, 0.033 h, 100 mg/kg, 1.98 min",11186 ng/mL and 25999 ng/mL and 23841 ng/mL and 28971 ng/mL and 18505 ng/mL
same,"Blood concentration, individual rats (Rat-1 to Rat-5)","[1]; oral 100 mg/kg, 0.083 h, 100 mg/kg, 4.98 min",11984 ng/mL and 10776 ng/mL and 14222 ng/mL and 11623 ng/mL
same,"Blood concentration, individual rats (Rat-1 to Rat-5)","[1]; oral 100 mg/kg, 0.250 h, 100 mg/kg, 15 min",2707 ng/mL and 4629 ng/mL and 3531 ng/mL and 5982 ng/mL and 3895 ng/mL
same,"Blood concentration, individual rats (Rat-1 to Rat-5)","[1]; oral 100 mg/kg, 0.500 h, 100 mg/kg, 30 min",816 ng/mL and 1963 ng/mL and 1685 ng/mL and 2939 ng/mL and 1516 ng/mL
same,"Blood concentration, individual rats (Rat-1 to Rat-5)","[1]; oral 100 mg/kg, 1.000 h, 100 mg/kg, 60 min",784 ng/mL and 773 ng/mL and 577 ng/mL and 1204 ng/mL and 535 ng/mL
same,"Blood concentration, individual rats (Rat-1 to Rat-5)","[1]; oral 100 mg/kg, 2.000 h, 100 mg/kg",0 ng/mL
same,"Blood concentration, individual rats (Rat-1 to Rat-5)","[1]; oral 100 mg/kg, 2.000 h, 100 mg/kg, 120 min",204 ng/mL and 98 ng/mL and 424 ng/mL and 162 ng/mL
same,"Blood concentration, individual rats (Rat-1 to Rat-5)","[1]; oral 100 mg/kg, 4.000 h, 100 mg/kg",0 ng/mL
same,"Blood concentration, individual rats (Rat-1 to Rat-5)","[1]; oral 100 mg/kg, 4.000 h, 100 mg/kg, 240 min",121 ng/mL and 55 ng/mL
same,"Blood concentration, individual rats (Rat-1 to Rat-5)","[1]; oral 100 mg/kg, 6.000 h, 100 mg/kg",0 ng/mL
same,"Blood concentration, individual rats (Rat-1 to Rat-5)","[1]; oral 100 mg/kg, 6.000 h, 100 mg/kg, 360 min",51 ng/mL
same,"Blood concentration, individual rats (Rat-1 to Rat-5)","[1]; oral 100 mg/kg, 24.000 h",0 ng/mL
same,concentration at 0.083 h,"[1]; rat, blood, iv, 10 mg/kg, i.v. 10 mg/kg, 0.083 h, read-out: Blood concentration, individual rats (Rat-1 to Rat-5)",8790 ng/mL
same,concentration at 6 h,"[1]; rat, blood, iv, 10 mg/kg, i.v. 10 mg/kg, 6.000 h, read-out: Blood concentration, individual rats (Rat-1 to Rat-5)",90 ng/mL
same,concentration at 0.033 h,"[1]; rat, blood, iv, 10 mg/kg, rats, i.v. 10 mg/kg, 0.033 h",21700 ng/mL
same,concentration at 0.083 h,"[1]; rat, blood, iv, 10 mg/kg, rats, i.v. 10 mg/kg, 0.083 h, read-out: Blood concentration, Mean",11500 ng/mL
same,concentration at 0.25 h,"[1]; rat, blood, iv, 10 mg/kg, rats, i.v. 10 mg/kg, 0.250 h",4150 ng/mL
same,concentration at 0.5 h,"[1]; rat, blood, iv, 10 mg/kg, rats, i.v. 10 mg/kg, 0.500 h",1780 ng/mL
same,concentration at 1 h,"[1]; rat, blood, iv, 10 mg/kg, rats, i.v. 10 mg/kg, 1.000 h",775 ng/mL
same,concentration at 2 h,"[1]; rat, blood, iv, 10 mg/kg, rats, i.v. 10 mg/kg, 2.000 h",178 ng/mL
same,concentration at 4 h,"[1]; rat, blood, iv, 10 mg/kg, rats, i.v. 10 mg/kg, 4.000 h",35 ng/mL
same,concentration at 6 h,"[1]; rat, blood, iv, 10 mg/kg, rats, i.v. 10 mg/kg, 6.000 h, read-out: Blood concentration, Mean",28 ng/mL
same,concentration at 0.083 h,"[1]; rat, blood, po, 100 mg/kg, oral 100 mg/kg, 0.083 h, read-out: Blood concentration, individual rats (Rat-1 to Rat-5)",8790 ng/mL
same,concentration at 6 h,"[1]; rat, blood, po, 100 mg/kg, oral 100 mg/kg, 6.000 h, read-out: Blood concentration, individual rats (Rat-1 to Rat-5)",90 ng/mL
same,concentration at 0.033 h,"[1]; rat, blood, po, 100 mg/kg, rats, oral 100 mg/kg, 0.033 h",21700 ng/mL
same,concentration at 0.083 h,"[1]; rat, blood, po, 100 mg/kg, rats, oral 100 mg/kg, 0.083 h, read-out: Blood concentration, Mean",11500 ng/mL
same,concentration at 0.25 h,"[1]; rat, blood, po, 100 mg/kg, rats, oral 100 mg/kg, 0.250 h",4150 ng/mL
same,concentration at 0.5 h,"[1]; rat, blood, po, 100 mg/kg, rats, oral 100 mg/kg, 0.500 h",1780 ng/mL
same,concentration at 1 h,"[1]; rat, blood, po, 100 mg/kg, rats, oral 100 mg/kg, 1.000 h",775 ng/mL
same,concentration at 2 h,"[1]; rat, blood, po, 100 mg/kg, rats, oral 100 mg/kg, 2.000 h",178 ng/mL
same,concentration at 4 h,"[1]; rat, blood, po, 100 mg/kg, rats, oral 100 mg/kg, 4.000 h",35 ng/mL
same,concentration at 6 h,"[1]; rat, blood, po, 100 mg/kg, rats, oral 100 mg/kg, 6.000 h, read-out: Blood concentration, Mean",28 ng/mL
same,bioavailability,"[1]; rat, blood, po, rats, read-out: Bioavailability",32.6%
same,half-life,"[1]; rat, blood, rats, mean ± error, read-out: Elimination Half-life (converted)",1.07 ± 0.27 h
same,half-life,"[1]; rat, blood, rats, read-out: elimination half-time",1.07 h
same,"Blood concentration, Mean","[1]; rats, i.v. 10 mg/kg, 0.000 h",0 ng/mL
same,"Blood concentration, Mean","[1]; rats, i.v. 10 mg/kg, 24.000 h",0 ng/mL
same,distribution and disappearance after intravenous injection,"[1]; rats, intravenous injection",rapidly distributed in the body and slowly disappeared
same,"Blood concentration, Mean","[1]; rats, oral 100 mg/kg, 0.000 h",0 ng/mL
same,"Blood concentration, Mean","[1]; rats, oral 100 mg/kg, 24.000 h",0 ng/mL
same,bioavailability,[1]; rats,32.62 ± 7.69%
same,Plasma TT ratio after administration to rat,[2]; 30 mg/kg oral,2.62
same,Plasma TT ratio after administration to rat,[2]; 50 mg/kg oral,7.83

# Reference: patent publication US6201006A, “Aromatic amidine derivatives useful as selective thrombin inhibitors” (C & C Research Laboratories, priority 1996, dated 2001)
